24 molecules from patent US20250215012A1, “IKZF2 DEGRADERS AND USES THEREOF” (REGENTS OF THE UNIVERSITY OF MICHIGAN, priority 2022, published 2025) can be followed below.

Structures are written as SMILES. A value given as a limit tells only on which side of the number the result lay.

This test addresses IKZF2 (Homo sapiens (Human), UniProt Q96SW2+Q9UKS7). The test can be described thus: IKZF2 HiBiT Assay (Jurkat-IKZF2-HiBiT cell line). The test is classed as cell-based. The conditions noted are these: Jurkat-IKZF2-HiBiT cells, 24 hours; for DC50: read-out: HiBit assay degradation analysis DC50; for Dmax: read-out: HiBit assay degradation analysis Dmax. The essentials:
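IKZF2 degradation was assessed as HiBiT luminescence in Jurkat-IKZF2-HiBiT cells, using lytic detection after 24 h of compound treatment at 37 °C, 5% CO2.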

Chain of IKZF2 (Q9UKS7 whole entry): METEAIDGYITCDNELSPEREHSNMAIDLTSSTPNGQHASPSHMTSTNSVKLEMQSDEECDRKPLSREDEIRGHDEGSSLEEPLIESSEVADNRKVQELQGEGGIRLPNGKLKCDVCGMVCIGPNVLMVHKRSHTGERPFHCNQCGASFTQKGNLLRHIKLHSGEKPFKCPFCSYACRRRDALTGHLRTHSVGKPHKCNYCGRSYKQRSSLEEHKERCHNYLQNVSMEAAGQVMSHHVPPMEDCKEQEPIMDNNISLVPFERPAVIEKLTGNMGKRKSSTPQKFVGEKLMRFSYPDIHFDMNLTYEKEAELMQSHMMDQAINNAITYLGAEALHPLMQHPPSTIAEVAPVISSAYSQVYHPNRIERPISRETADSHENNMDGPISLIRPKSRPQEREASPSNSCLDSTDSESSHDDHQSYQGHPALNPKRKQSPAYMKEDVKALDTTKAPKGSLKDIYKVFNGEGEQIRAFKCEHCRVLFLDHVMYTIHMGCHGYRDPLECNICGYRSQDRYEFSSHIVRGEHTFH
Chain of IKZF2 (Q96SW2 whole entry): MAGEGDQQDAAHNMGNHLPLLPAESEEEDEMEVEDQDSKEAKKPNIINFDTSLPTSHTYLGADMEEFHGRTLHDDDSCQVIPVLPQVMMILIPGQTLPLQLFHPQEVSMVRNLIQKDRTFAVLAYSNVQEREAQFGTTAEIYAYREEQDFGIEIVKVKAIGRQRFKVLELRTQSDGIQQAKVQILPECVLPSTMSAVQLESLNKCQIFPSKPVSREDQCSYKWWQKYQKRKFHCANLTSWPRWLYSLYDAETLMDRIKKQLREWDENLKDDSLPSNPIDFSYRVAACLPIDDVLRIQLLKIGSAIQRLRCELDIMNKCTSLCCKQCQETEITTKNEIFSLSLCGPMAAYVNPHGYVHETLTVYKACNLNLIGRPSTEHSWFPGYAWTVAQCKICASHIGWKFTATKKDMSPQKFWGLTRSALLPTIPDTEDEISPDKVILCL
Chain of IKZF2 (Q16531 whole entry partner): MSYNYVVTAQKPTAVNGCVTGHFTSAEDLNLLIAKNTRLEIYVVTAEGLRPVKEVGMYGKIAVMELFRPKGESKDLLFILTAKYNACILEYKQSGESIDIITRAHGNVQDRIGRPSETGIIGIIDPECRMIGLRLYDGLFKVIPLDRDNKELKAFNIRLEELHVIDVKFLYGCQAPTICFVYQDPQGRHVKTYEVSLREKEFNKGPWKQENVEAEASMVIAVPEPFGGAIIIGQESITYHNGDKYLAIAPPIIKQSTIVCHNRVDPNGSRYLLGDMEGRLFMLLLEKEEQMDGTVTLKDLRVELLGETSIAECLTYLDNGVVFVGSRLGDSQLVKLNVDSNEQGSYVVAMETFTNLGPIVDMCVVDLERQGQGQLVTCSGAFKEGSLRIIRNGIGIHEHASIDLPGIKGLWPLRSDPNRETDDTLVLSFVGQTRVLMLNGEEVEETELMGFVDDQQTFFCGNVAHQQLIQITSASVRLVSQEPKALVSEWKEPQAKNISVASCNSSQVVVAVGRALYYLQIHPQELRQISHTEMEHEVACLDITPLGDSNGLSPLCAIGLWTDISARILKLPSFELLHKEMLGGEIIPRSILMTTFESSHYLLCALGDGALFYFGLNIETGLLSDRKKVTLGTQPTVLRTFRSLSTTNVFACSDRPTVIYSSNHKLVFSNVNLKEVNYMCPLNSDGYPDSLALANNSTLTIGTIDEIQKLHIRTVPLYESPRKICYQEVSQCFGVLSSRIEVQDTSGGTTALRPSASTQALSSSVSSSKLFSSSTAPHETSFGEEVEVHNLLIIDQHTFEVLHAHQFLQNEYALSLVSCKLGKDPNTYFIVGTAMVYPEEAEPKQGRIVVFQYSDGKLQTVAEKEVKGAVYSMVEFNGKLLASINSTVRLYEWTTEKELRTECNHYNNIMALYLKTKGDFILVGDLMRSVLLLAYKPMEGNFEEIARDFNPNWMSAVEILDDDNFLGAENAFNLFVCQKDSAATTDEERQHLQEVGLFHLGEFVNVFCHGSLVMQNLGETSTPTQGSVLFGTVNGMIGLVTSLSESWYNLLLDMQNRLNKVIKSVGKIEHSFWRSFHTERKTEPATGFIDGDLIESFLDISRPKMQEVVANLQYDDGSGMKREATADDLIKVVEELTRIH

Broadly, the DC50 is the concentration at which degradation of the target reaches its halfway point. By Dmax is commonly meant the greatest extent of degradation seen. `CN(C(=O)c1cccc(CN2CCC3(CC2)COc2c3ccc3c2CN(C2CCC(=O)NC2=O)C3=O)c1)c1cccc(F)c1` (stereo not shown) [Compound A166, 3-((7-(2,6-dioxopiperidin-3-yl)-6-oxo-7,8-dihydro-2H,6H-spiro[furo[2,3-e]isoindole-3,4′-piperidin]-1′-yl)methyl)-N-(3-fluorophenyl)-N-methylbenzamide]: the DC50 is 50 to 200 nM and the maximal degradation (Dmax) is 40 to 60%.
Consider `[2H]C([2H])([2H])n1ccc(-c2cccc(CN3CCC4(CC3)COc3c4ccc4c3CN([C@H]3CCC(=O)NC3=O)C4=O)c2)n1` [Compound A302, (S)-3-(1′-(3-(1-(methyl-d3)-1H-pyrazol-3-yl)benzyl)-6-oxo-6,8-dihydro-2H,7H-spiro[furo[2,3-e]isoindole-3,4′-piperidin]-7-yl)piperidine-2,6-dione], for which the 50% degradation concentration (DC50) was below 50 nM and the Dmax was in the range of 60 to 80%.
For `O=C1CC[C@H](N2Cc3c(ccc4c3OCC43CCN(Cc4cccc(-c5cnn(C6COC6)c5)c4)CC3)C2=O)C(=O)N1` [Compound A265, (S)-3-(1′-(3-(1-(oxetan-3-yl)-1H-pyrazol-4-yl)benzyl)-6-oxo-6,8-dihydro-2H,7H-spiro[furo[2,3-e]isoindole-3,4′-piperidin]-7-yl)piperidine-2,6-dione], in that order: below 50 nM and 60 to 80%.
For `COc1ccc(C(=O)Nc2cccc(CN3CCC4(CC3)OCc3c4ccc4c3CN(C3CCC(=O)NC3=O)C4=O)c2)cc1` (stereo not shown) [Compound A262], in that order: below 50 nM and 60 to 80%.
For `O=C1CCC(N2Cc3c(ccc4c3OCC43CCN(Cc4nc(-c5ccccc5)cs4)CC3)C2=O)C(=O)N1` (stereo not shown) [Compound A85, 3-(6-oxo-1′-((4-phenylthiazol-2-yl)methyl)-6,8-dihydro-2H,7H-spiro[furo[2,3-e]isoindole-3,4′-piperidin]-7-yl)piperidine-2,6-dione], in that order: above 500 nM and below 40%.
`O=C1CCC(N2Cc3c(ccc4c3OCC43CCN(Cc4ccc5c(c4)NC(=O)CO5)CC3)C2=O)C(=O)N1` (stereo not shown) [Compound A153, 3-(6-oxo-1′-((3-oxo-3,4-dihydro-2H-benzo[b][1,4]oxazin-6-yl)methyl)-6,8-dihydro-2H,7H-spiro[furo[2,3-e]isoindole-3,4′-piperidin]-7-yl)piperidine-2,6-dione]: the DC50 is 50 to 200 nM and the Dmax was in the range of 60 to 80%.
The matching figures for `O=C1CCC(N2Cc3c(ccc4c3OCC43CCN(Cc4cccc(NS(=O)(=O)c5ccccc5)c4)CC3)C2=O)C(=O)N1` (stereo not shown) [Compound A261, N-(3-((7-(2,6-dioxopiperidin-3-yl)-6-oxo-7,8-dihydro-2H,6H-spiro[furo[2,3-e]isoindole-3,4′-piperidin]-1′-yl)methyl)phenyl)benzenesulfonamide]: above 500 nM and below 40%.
For the molecule `O=C1CC[C@H](N2Cc3c(ccc4c3OCC43CCN(Cc4ccc5c(c4)NC(=O)C5)CC3)C2=O)C(=O)N1` [Compound A173, (S)-3-(6-oxo-1′-((2-oxoindolin-6-yl)methyl)-6,8-dihydro-2H,7H-spiro[furo[2,3-e]isoindole-3,4′-piperidin]-7-yl)piperidine-2,6-dione], the DC50 is 50 to 200 nM and the Dmax is 60 to 80%.
For `Cc1cc2c(CN3CCC4(CC3)COc3c4ccc4c3CN(C3CCC(=O)NC3=O)C4=O)cccc2[nH]1` (stereo not shown) [Compound A121, 3-(1′-((2-methyl-1H-indol-4-yl)methyl)-6-oxo-6,8-dihydro-2H,7H-spiro[furo[2,3-e]isoindole-3,4′-piperidin]-7-yl)piperidine-2,6-dione], in that order: below 50 nM and 60 to 80%.
In the case of `O=C1CCC(N2Cc3c(ccc4c3OCC43CCN(C[C@H]4C[C@H](Oc5ccc(F)cc5)C4)CC3)C2=O)C(=O)N1` (stereo partly shown) [Compound A356, 3-(1′-(((1r,3r)-3-(4-fluorophenoxy)cyclobutyl)methyl)-6-oxo-6,8-dihydro-2H,7H-spiro[furo[2,3-e]isoindole-3,4′-piperidin]-7-yl)piperidine-2,6-dione], the DC50 is above 500 nM.
Turning to `CC(c1ccccc1)N1CCC2(CC1)COc1c2ccc2c1CN(C1CCC(=O)NC1=O)C2=O` (stereo not shown) [Compound A318, 3-(6-oxo-1′-(1-phenylethyl)-6,8-dihydro-2H,7H-spiro[furo [2,3-e]isoindole-3,4′-piperidin]-7-yl)piperidine-2,6-dione], the DC50 is below 50 nM and the Dmax is 60 to 80%.
For `O=C1CCC(N2Cc3c(ccc4c3OCC43CCN(Cc4ccc5oc(=O)[nH]c5c4)CC3)C2=O)C(=O)N1` (stereo not shown) [Compound A165, 3-(6-oxo-1′-((2-oxo-2,3-dihydrobenzo[d]oxazol-5-yl)methyl)-6,8-dihydro-2H,7H-spiro[furo[2,3-e]isoindole-3,4′-piperidin]-7-yl)piperidine-2,6-dione], in that order: 50 to 200 nM and 60 to 80%.
On to `Cn1nccc1-c1cccc(CN2CCC3(CC2)COc2c3ccc3c2CN(C2CCC(=O)NC2=O)C3=O)c1` (stereo not shown) [Compound A144, 3-(1′-(3-(1-methyl-1H-pyrazol-5-yl)benzyl)-6-oxo-6,8-dihydro-2H,7H-spiro[furo[2,3-e]isoindole-3,4′-piperidin]-7-yl)piperidine-2,6-dione], for which the DC50 was in the range of 200 to 500 nM and the Dmax lay in the range of 40 to 60%.
As for `O=C1CCC(N2Cc3c(ccc4c3OCC43CCN(Cc4cnn5c4CCC5)CC3)C2=O)C(=O)N1` (stereo not shown) [Compound A244, 3-(1′-((5,6-dihydro-4H-pyrrolo[1,2-b]pyrazol-3-yl)methyl)-6-oxo-6,8-dihydro-2H,7H-spiro[furo[2,3-e]isoindole-3,4′-piperidin]-7-yl)piperidine-2,6-dione], the DC50 was 200 to 500 nM and the Dmax was in the range of 60 to 80%.
In the case of `Cn1cc(-c2ccc(CN3CCC4(CC3)COc3c4ccc4c3CN(C3CCC(=O)NC3=O)C4=O)cc2)cn1` (stereo not shown) [Compound A148, 3-(1′-(4-(1-methyl-1H-pyrazol-4-yl)benzyl)-6-oxo-6,8-dihydro-2H,7H-spiro[furo[2,3-e]isoindole-3,4′-piperidin]-7-yl)piperidine-2,6-dione], the DC50 was below 50 nM and the Dmax is 60 to 80%.
For `O=C1CC[C@H](N2Cc3c(ccc4c3OCC43CCN(Cc4cccc(-c5cnn([C@@H]6CCOC6)c5)c4)CC3)C2=O)C(=O)N1` [Compound A270, (S)-3-(6-oxo-1′-(3-(1-((R)-tetrahydrofuran-3-yl)-1H-pyrazol-4-yl)benzyl)-6,8-dihydro-2H,7H-spiro[furo[2,3-e]isoindole-3,4′-piperidin]-7-yl)piperidine-2,6-dione], in that order: below 50 nM and 60 to 80%.
Regarding `O=C1CC[C@H](N2Cc3c(ccc4c3OCC43CCN(Cc4cnn(S(=O)(=O)c5cccc(Cl)c5F)c4)CC3)C2=O)C(=O)N1` [Compound A357, (S)-3-(1′-((1-((3-chloro-2-fluorophenyl)sulfonyl)-1H-pyrazol-4-yl)methyl)-6-oxo-6,8-dihydro-2H,7H-spiro[furo[2,3-e]isoindole-3,4′-piperidin]-7-yl)piperidine-2,6-dione], the Dmax fell in the range of 60 to 80%.
On to `O=C1CC[C@H](N2Cc3c(ccc4c3OCC43CCN(Cc4cccc(-c5cnn(CCF)c5)c4)CC3)C2=O)C(=O)N1` [Compound A293, (S)-3-(1′-(3-(1-(2-fluoroethyl)-1H-pyrazol-4-yl)benzyl)-6-oxo-6,8-dihydro-2H,7H-spiro[furo[2,3-e]isoindole-3,4′-piperidin]-7-yl)piperidine-2,6-dione], for which the DC50 is below 50 nM and the Dmax was in the range of 60 to 80%.
Consider `O=C1CCC(N2Cc3c(ccc4c3OCC43CCN(Cc4ccc(Cl)c5ccccc45)CC3)C2=O)C(=O)N1` (stereo not shown) [Compound A37, 3-(1′-((4-chloronaphthalen-1-yl)methyl)-6-oxo-6,8-dihydro-2H,7H-spiro[furo[2,3-e]isoindole-3,4′-piperidin]-7-yl)piperidine-2,6-dione], for which the DC50 was above 500 nM and the maximal degradation (Dmax) was 40 to 60%.
The matching figures for `Cn1ncc2cccc(CN3CCC4(CC3)COc3c4ccc4c3CN(C3CCC(=O)NC3=O)C4=O)c21` (stereo not shown) [Compound A53, 3-(1′-((1-methyl-1H-indazol-7-yl)methyl)-6-oxo-6,8-dihydro-2H,7H-spiro[furo[2,3-e]isoindole-3,4′-piperidin]-7-yl)piperidine-2,6-dione]: above 500 nM and 40 to 60%.
The matching figures for `O=C1CCC(N2Cc3c(ccc4c3OCC43CCN(Cc4ccn(-c5ccccc5)n4)CC3)C2=O)C(=O)N1` (stereo not shown) [Compound A251, 3-(6-oxo-1′-((1-phenyl-1H-pyrazol-3-yl)methyl)-6,8-dihydro-2H,7H-spiro[furo[2,3-e]isoindole-3,4′-piperidin]-7-yl)piperidine-2,6-dione]: above 500 nM and below 40%.
For `O=C1CCC(N2Cc3c(ccc4c3OCC43CCN(Cc4ccc(F)c5[nH]ncc45)CC3)C2=O)C(=O)N1` (stereo not shown) [Compound A136, 3-(1′-((7-fluoro-1H-indazol-4-yl)methyl)-6-oxo-6,8-dihydro-2H,7H-spiro[furo[2,3-e]isoindole-3,4′-piperidin]-7-yl)piperidine-2,6-dione], in that order: below 50 nM and 40 to 60%.
Take `Cn1cc(CN2CCC3(CC2)COc2c3ccc3c2CN(C2CCC(=O)NC2=O)C3=O)c(-c2ccccc2)n1` (stereo not shown) [Compound A256, 3-(1′-((1-methyl-3-phenyl-1H-pyrazol-4-yl)methyl)-6-oxo-6,8-dihydro-2H,7H-spiro[furo[2,3-e]isoindole-3,4′-piperidin]-7-yl)piperidine-2,6-dione]: the DC50 is above 500 nM and the Dmax is below 40%.
The matching figures for `O=C1CCC(N2Cc3c(ccc4c3OCC43CCN(Cc4cccc5ccncc45)CC3)C2=O)C(=O)N1` (stereo not shown) [Compound A40, 3-(1′-(isoquinolin-8-ylmethyl)-6-oxo-6,8-dihydro-2H,7H-spiro[furo[2,3-e]isoindole-3,4′-piperidin]-7-yl)piperidine-2,6-dione]: 50 to 200 nM and 60 to 80%.
